Assay results taken from article PMC8231229, “New Trimethoprim-Like Molecules: Bacteriological Evaluation and Insights into Their Action” (Antibiotics, 2021).
Values after ≈ are worked out from the molar mass of the structure shown. Where two headings read alike, the source gives them in different places. Peptide text beside a SMILES is read from it. * marks the point of attachment. βNA = c1ccc2cc(N*)ccc2c1

What was measured:
[1] = Storage stability checked by HPLC-MS; assay type: physicochemical; details: for stability of stock solutions in DMSO: kept in the cold; for time after synthesis without signs of decomposition: stored at −20 °C under an inert atmosphere, HPLC-MS
Experimental: Compounds 1a and 1b were prepared as previously reported, from the interaction of TMP with aldehydes and isocyanides in acetonitrile under Yb(OTf)3 catalysis. The compounds were purified by chromatography and stored at −20 °C under an inert atmosphere. Stock solutions in DMSO were stable when kept in the cold. The integrity of these compounds and solutions thereof was confirmed by HPLC-MS (column: ZORBAX Extend-C18 3.5 μm 2.1 × 50 mm, Agilent; mobile phase A: H2O + 0.05% HCOOH; mobile phase B: ACN + 0.05% HCOOH; 10 min; 35 °C). There were no signs of decomposition at least 1 year after their chemical synthesis.

E. coli 220560529 = experiment: Susceptibility test in TMP-resistant strain; assay type: cell-based; details: data not shown
Experimental: (§1) The minimum inhibitory concentrations (MICs) of colistin, TMP, 1a, and 1b were determined using the microdilution method, according to EUCAST recommendations.

S. epidermidis 220560752 = experiment: Susceptibility test in TMP-resistant strain; assay type: cell-based; details: data not shown
Experimental: as §1

[2] = test system: Pseudomonas aeruginosa PAO1; parameters: method as in PMID 31334221; details: tested alone; cited from earlier work
[3] = Cytotoxicity assay (resazurin); assay type: cell-based, murine; details: mouse, L-929 fibroblasts; 32 μg/mL, 24 h; percentage of dead cells
Experimental: (§2) The cytotoxicity assay was carried out in the human hepatocellular carcinoma cell line Hep G2 ATCC and in murine L-929 fibroblasts (NCTC clone 929, ECACC 88102702), based on the experiments described by Vinuesa et al.. The cells were obtained from Dr. Ricardo Pérez-Tomás (Cancer Cell Biology, University of Barcelona). The cytotoxicity of TMP and compounds 1a and 1b was determined by measuring the intracellular reduction of resazurin sodium salt (Sigma-Aldrich, St. Louis, MO, USA). HepG2 and L-929 cells were grown in RPMI 1640 and MEM medium, respectively (Biochrom AG, Berlin, Germany), supplemented with 10% fetal bovine serum. Cells from pre-confluent cultures were harvested with trypsin-EDTA and maintained at 37 °C and 5% CO2. […] Twenty µL of resazurin was then added to each well and the plates were incubated under the same conditions. Fluorescence was measured at an excitation wavelength of 530 nm and an emission wavelength of 590 nm using a scanning multi-well spectrophotometer (FLUOstar OPTIMA, BMG Labtech, Germany). Cytotoxicity was calculated as follows:(1) % Cytotoxicity = 100−(AT−ADB)/(AC−AMB) ×100 where AT is the absorbance of the treated cells, ADB the absorbance of the drug blank control, AC the absorbance of the untreated cells, and ACB the absorbance of the medium blank.

L-929 cells = experiment: Cytotoxicity assay (resazurin); assay type: cell-based, murine
Experimental: as §2

[4] = test system: Escherichia coli ATCC 25922; parameters: method as in PMID 31334221; details: tested alone; cited from earlier work
HepG2 cells = experiment: Cytotoxicity assay (resazurin); assay type: cell-based, human
Experimental: as §2

E. coli DHFR = molecular target: T1, E. coli DHFR (Escherichia coli, UniProt P0ABQ4); experiment: Dihydrofolate reductase assay; assay type: biochemical; details: inhibitor 5 µM, 30 min incubation
T1 construct: gift of E. Shakhnovich and J.V. Rodrigues (Harvard University)
Experimental: The DHFR assay is based on the reduction of 7,8-dihydrofolate to 5,6,7,8-tetrahydrofolate catalyzed by DHFR and using NADPH as a cofactor. Purified E. coli DHFR was kindly provided by E. Shakhnovich and J.V. Rodrigues (Harvard University, Cambridge, MA, USA). The DHFR assay kit (CS0340) was purchased from Sigma-Aldrich. The assay was performed in 96-well flat-bottom plates (Corning Costar 3606, NY, USA) with the protocol adjusted to accommodate a final reaction volume of 200 µL. DHFR was diluted to a final concentration of 0.03 µg/mL. The inhibitory effect of compounds 1a and 1b was tested, with TMP serving as the control. All three drugs were used at a concentration of 5 µM, which was higher than the respective MICs (Table 1). To determine the effect of the concentration of the DHFR cofactor NADPH on inhibition, a dilution series of NADPH in assay buffer was carried out to obtain a concentration range between 60 µM and 240 µM. A dilution series of H2F was similarly carried out in assay buffer to obtain a concentration range from 50 µM to 200 µM. In all assays, the enzyme was mixed with the different inhibitors and incubated for 30 min before the enzymatic reaction was initiated by the addition of NADPH and H2F. The reaction was conducted at 37 °C and monitored by the decrease in absorbance at 340 nm (indicative of a decrease in the NADPH concentration). […]

Serratia marcescens NIMA = experiment: MIC by microdilution (EUCAST), planktonic bacteria; assay type: cell-based; details: tested alone
Experimental: as §1

S. marcescens NIMA = experiment: Real-time growth curves with sublethal concentrations; assay type: cell-based; details: with SMX (1:20), in the presence of colistin
Experimental: (§3) Additionally, the effect of TMP-SMX and the GBBR analogues in combination with sublethal concentrations of colistin was assessed in growth curves of E. coli ATCC 25922, P. aeruginosa PAO1, and S. marcescens NIMA. Exponential-phase cultures were adjusted to 5 × 10^6 CFU/mL in a final volume of 10 mL of TSB and the antimicrobials were added at sublethal concentrations. Growth was monitored using RTS-1C real-time cell growth loggers (Biosan SIA, Riga, Latvia) in cells incubated for 24 h at 37 °C with shaking at 2000 rpm. Growth was measured every 10 min as the optical density (OD 850 nm).

[5] = Cytotoxicity assay (resazurin); assay type: cell-based, human; details: human, HepG2 cells; 32 μg/mL, 24 h; percentage of dead cells
Experimental: as §2

bacterial growth = test system: bacterial growth; parameters: method as in PMID 23722434; details: concentrations up to 40 µg/mL; cited from earlier work
P. aeruginosa PAO1 [6] = experiment: MIC in presence or absence of efflux pump inhibitor PAßN; assay type: cell-based; details: colistin alone
Experimental: The efflux pump inhibitor phenyl-arginyl-β-naphthylamide (PaβN) was purchased from Sigma-Aldrich Chemicals (Madrid, Spain). The MIC of the TMP analogues in combination with SMX in the presence of 20 µg PaβN/mL was determined in P. aeruginosa PAO1 using the microdilution method.

P. aeruginosa PAO1 [7] = experiment: Real-time growth curves with sublethal concentrations; assay type: cell-based; details: 0.87 µM colistin alone
Experimental: as §3

E. coli ATCC 25922 = experiment: as above; assay type: cell-based; details: 0.11 µM colistin alone
Experimental: as §3

[8] = Mus musculus, L929, 24 h, read-out: IC50 (drug concentration needed to inhibit cell growth by 50%)
[9] = Homo sapiens, HepG2, 24 h, read-out: IC50 (drug concentration needed to inhibit cell growth by 50%)

T1 sequence (P0ABQ4 whole entry): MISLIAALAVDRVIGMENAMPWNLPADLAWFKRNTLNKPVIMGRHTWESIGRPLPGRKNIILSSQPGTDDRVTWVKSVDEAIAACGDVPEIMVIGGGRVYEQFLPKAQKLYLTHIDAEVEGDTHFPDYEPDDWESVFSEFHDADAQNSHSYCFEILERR

COc1cc(Cc2cn3c(NC(C)(C)C)c(C)nc3nc2N)cc(OC)c1OC [Compound 1a]
stability of stock solutions in DMSO [1]: stable | time after synthesis without signs of decomposition [1]: at least 1 year | effect in TMP-resistant strain (E. coli 220560529): no significant effect | effect in TMP-resistant strain (S. epidermidis 220560752): no significant effect | MIC [2]: >80.10 µM | cytotoxicity at 24 h, 32 μg/mL [3]: 0% | IC50 (L-929 cells; [8]): > 32 µg/mL | MIC [4]: 1.25 µM (≈ 0.499 µg/mL) | IC50 (HepG2 cells; [9]): > 32 µg/mL | inhibition at 5 µM (E. coli DHFR): > 80% | MIC (Serratia marcescens NIMA; Serratia marcescens): 80.1 µM (≈ 32 µg/mL)

COc1cc(Cc2cn3c(NC4CCCCC4)c(-c4cccnc4)nc3nc2N)cc(OC)c1OC [Compound 1b]
stability of stock solutions in DMSO [1]: stable | time after synthesis without signs of decomposition [1]: at least 1 year | effect in TMP-resistant strain (E. coli 220560529): no significant effect | effect in TMP-resistant strain (S. epidermidis 220560752): no significant effect | MIC [2]: >65.50 µM | cytotoxicity at 24 h, 32 μg/mL [3]: 0% | IC50 (L-929 cells; [8]): > 32 µg/mL | effect on growth curve (S. marcescens NIMA): complete abolition of growth | MIC [4]: 1.02 µM (≈ 0.498 µg/mL) | cytotoxicity at 24 h, 32 μg/mL [5]: 0.11% | IC50 (HepG2 cells; [9]): > 32 µg/mL | inhibition at 5 µM (E. coli DHFR): > 80% | MIC (Serratia marcescens NIMA; Serratia marcescens): 16.4 µM (≈ 8 µg/mL)

NC(N)=NCCC[C@H](NC(=O)[C@@H](N)Cc1ccccc1)C(=O)Nc1ccc2ccccc2c1 [PAßN, phenylalanine arginyl ß-naphthylamide] (H-Phe-Arg-βNA)
effect on bacterial growth (bacterial growth): no detectable effect on bacterial growth

COc1cc(Cc2cnc(N)nc2N)cc(OC)c1OC [TMP, Trimethoprim]
MIC [2]: >110.22 µM | cytotoxicity at 24 h, 32 μg/mL [3]: 0.8% | IC50 (L-929 cells; Mus musculus, L929, 24 h; read-out: IC50 (drug concentration needed to inhibit cell growth by 50%)): > 32 µg/mL | MIC [4]: 0.43 µM (≈ 0.125 µg/mL) | cytotoxicity at 24 h, 32 μg/mL [5]: 0.35% | IC50 (HepG2 cells; Homo sapiens, HepG2, 24 h; read-out: IC50 (drug concentration needed to inhibit cell growth by 50%)): > 32 µg/mL | MIC (Serratia marcescens NIMA; Serratia marcescens): 13.8 µM (≈ 4 µg/mL)

colistin
MIC With PAßN (P. aeruginosa PAO1 [6]; PAßN 20 µg/mL): 1.73 µM | MIC Without PAßN (P. aeruginosa PAO1 [6]): 1.73 µM | MIC [2]: 1.73 µM | delay in growth (P. aeruginosa PAO1 [7]): 2 h | delay in growth (E. coli ATCC 25922): 10 h | MIC [4]: 0.43 µM | MIC (Serratia marcescens NIMA): >886.23 µM
